In patent EP0107907A2, “Improvements in or relating to immunomodulating agents” (ELI LILLY AND COMPANY, priority 1982, dated 1984):

Test system: murine macrophages
Assay: In vitro activation of murine macrophages (macrophage-mediated tumor cytotoxicity against P815 cells)
Format: cell-based
Settings: for Percent Macrophage Cytotoxicity: 48 hours; for immunomodulatory activity: in the in vitro assay
Procedure: In one procedure, the ability of the compounds to activate murine macrophages in vitro was determined. Peritoneal macrophages were exposed to a compound of formula 1, 2, or 3 simultaneously with the addition of target cells. Tumor cytotoxicity of these treated macrophages was determined 48 hours later by trypan blue enumeration. The percentage of growth inhibition of P815 cells due to composition-mediated macrophage activation was calculated by comparison to that of P815 cells grown in the.presence of macrophages exposed to buffer.

## C[C@@H]1O[C@@H]1P(=O)(O)O [Fosfomycin, reference compound]
Fosfomycin 10 µg/ml, Experiment 1
  Percent Macrophage Cytotoxicity: 49%
Fosfomycin 10 µg/ml, Experiment 2
  Percent Macrophage Cytotoxicity: 11%
Fosfomycin 100 µg/ml, Experiment 1
  Percent Macrophage Cytotoxicity: 47%
Fosfomycin 100 µg/ml, Experiment 2
  Percent Macrophage Cytotoxicity: 30%

## C[C@H](N)C(=O)N[C@@H](C)P(=O)(O)O [alaphosphin, L-alanyl-L-1-aminb-- ethylphosphonic acid, reference compound]
  immunomodulatory activity: did not exhibit immunomodulatory activity

## O=CN(O)CCCP(=O)(O)O [fosmidomycin, reference compound]
  immunomodulatory activity: did not exhibit immunomodulatory activity
